Experimental data: ChEMBL document CHEMBL3638995, “Disubstituted 3,4-diamino-3-cyclobutene-1,2-dione compounds for use in the treatment of chemokine-mediated pathologies” (2015)

How the values were obtained:
[1] = target: T1, C-X-C chemokine receptor type 2 (Homo sapiens, UniProt P25025); assay: (§1) Assay Drug Dev Technol. 2007 February; 5(1); 137-44).; assay type: cell-based
T1 sequence (P25025 whole entry): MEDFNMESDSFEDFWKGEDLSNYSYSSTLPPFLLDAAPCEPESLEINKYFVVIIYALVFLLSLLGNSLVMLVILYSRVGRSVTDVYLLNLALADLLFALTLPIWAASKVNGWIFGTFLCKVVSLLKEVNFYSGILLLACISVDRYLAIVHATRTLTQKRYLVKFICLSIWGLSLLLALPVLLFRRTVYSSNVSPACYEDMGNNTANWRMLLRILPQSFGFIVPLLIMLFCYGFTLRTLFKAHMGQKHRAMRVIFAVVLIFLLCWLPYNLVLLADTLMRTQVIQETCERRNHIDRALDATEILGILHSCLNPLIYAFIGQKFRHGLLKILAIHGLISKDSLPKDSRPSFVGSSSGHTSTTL

[2] = target: T2, C-X-C chemokine receptor type 1 (Homo sapiens, UniProt P25024); assay: as §1; assay type: cell-based
T2 sequence (P25024 whole entry): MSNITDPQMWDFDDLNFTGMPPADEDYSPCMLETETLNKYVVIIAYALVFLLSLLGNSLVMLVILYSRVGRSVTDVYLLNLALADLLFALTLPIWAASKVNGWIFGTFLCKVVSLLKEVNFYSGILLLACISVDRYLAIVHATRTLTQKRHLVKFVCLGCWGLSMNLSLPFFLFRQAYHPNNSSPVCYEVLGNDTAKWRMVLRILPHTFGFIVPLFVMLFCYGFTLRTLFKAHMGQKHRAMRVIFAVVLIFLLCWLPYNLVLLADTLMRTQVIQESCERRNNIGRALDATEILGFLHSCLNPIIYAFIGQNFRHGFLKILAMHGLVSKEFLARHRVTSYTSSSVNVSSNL

Molecule `Cc1ccc([C@H](Nc2c(Nc3csc(C(=O)N(C)C)c3O)c(=O)c2=O)C2(C)COC2)o1` has an IC50 [1] of 96 nM and an IC50 [2] of 3900 nM.
`Cc1ccc(C(Nc2c(Nc3cccc(C(=O)N(C)C)c3O)c(=O)c2=O)C2(C)COC2)s1` (stereo unspecified) gave an IC50 [1] of 146 nM and an IC50 [2] of 3030 nM.
`Cc1ccc([C@H](Nc2c(Nc3cccc(C(=O)N(C)C)c3O)c(=O)c2=O)C2(C)COC2)o1` was tested, and the IC50 [1] was 72 nM and the IC50 [2] was 312 nM.
